Values joined by “and” are separate entries in the source; they are usually repeats but may differ in a detail not shown here. Equal entries are not always repeated.
Tests used:
[1] = test system: Ziegen, mit remodellierten Vorhöfen; test: Atrial effective refractory period (AERP) in goats with electrically remodelled atria; assay type: in vivo; conditions: for atriale effektive Refraktärzeit (AERP): Remodelliert (1-4 days induced AF), cycle length 400 ms, mean ± SD, Beispiel 1 3 mg/kg/h; for Verlängerung des AERP: remodelled atria
Protocol: (§1) An chronisch instrumentierten Ziegen wurden die elektrophysiologischen Effekte der Verbindung des Beispiels 1, des IKr-Kanalblockers Ibutilide und der Kombination von der Verbindung des Beispiels 1 und Ibutilide untersucht.
(§2) Nach Infusion von 0,9% Kochsalzlösung über 30 min zur Kontrolle wurden die Substanzen lbutilide und die Verbindung des Beispiels 1 zum einen in Monotherapie und zum anderen in Kombination der beiden Wirkstoffe an 7 normalen Ziegen (d. h. ohne induziertes Vorhofflimmem) durch intravenöse Infusion verabreicht und die atriale effektive Refraktärzeit (AERP) bestimmt. Bei der Monotherapie wurde über die Zeitdauer von 60 Minuten 0.12 mg Ibutilide pro kg Körpergewicht verabreicht (0.002 mg pro kg pro Minute). In der Kombination wurden über die Dauer von 120 Minuten 6 mg der Verbindung des Beispiels 1 pro kg Körpergewicht verabreicht (3mg pro kg pro Stunde), wobei nach 60 Minuten zusätzlich 0.12 mg Ibutilide pro kg pro Stunde für die Dauer von 60 Minuten verabreicht wurden. Die Infusion der Verbindung des Beispiels 1 wurde insgesamt über 120 min durchgeführt. Kontrollmessungen der atrialen effektiven Refraktärzeit wurden einmal vor Gabe des Ibutilides (Kontrolle 1) und einmal vor Gabe der Verbindung des Beispiels 1 (Kontrolle 2) durchgeführt.
(§3) Das gleiche Infusionsschema wurde an denselben Tieren wiederholt, nachdem elektrische Remodellierung durch induziertes Vorhofflimmern von 1 bis 4 Tagen erzeugt wurde.
as §2, with “Ein analoges Infusionsschema wurde an 5 weiteren Tieren mit Dofetilide anstelle von Ibutilide durchgeführt. Nach” for “Nach”, “Dofetilide” for “lbutilide”, “5” for “7”, “Vorhofflimmern)” for “Vorhofflimmem)”, “Dofetilide” for “Ibutilide”, “Dofetilids” for “Ibutilides”
as §3

[2] = test system: normalen Ziegen; test: Atrial effective refractory period (AERP) in normal goats; assay type: in vivo; conditions: for atriale effektive Refraktärzeit (AERP): Nicht remodelliert, cycle length 400 ms, mean ± SD, Beispiel 1 3 mg/kg/h; for Verlängerung der AERP: normal atria
Protocol: as §1, §2
Die Kombination beider Substanzen wurde getestet, indem wie oben beschrieben nach der Infusion der Verbindung des Beispiels 1 über eine Stunde zusätzlich Ibutilide verabreicht wurde.
as §2, with “Ein analoges Infusionsschema wurde an 5 weiteren Tieren mit Dofetilide anstelle von Ibutilide durchgeführt. Nach” for “Nach”, “Dofetilide” for “lbutilide”, “5” for “7”, “Vorhofflimmern)” for “Vorhofflimmem)”, “Dofetilide” for “Ibutilide”, “Dofetilids” for “Ibutilides”

[3] = test system: persistierendem Vorhofflimmern (AF); test: Atrial fibrillation cycle length (AFCL) in goats with persistent atrial fibrillation; assay type: in vivo, Ziegen
Protocol: (§4) Es wurden Versuche an zwei Ziegen durchgeführt, die sich in persistierendem Vorhofflimmem von mehr als 45 Tagen befanden. Nach Infusion von 0,9% Kochsalzlösung über 30 min zur Kontrolle, wurde einer Ziege die Verbindung des Beispiels 1 der Reihe nach (jeweils im Abstand von Tagen) in Mengen von jeweils 0.0 (Kontrolle), 0.1, 0.3, 1, 3 und 10 mg pro kg Körpergewicht und pro Stunde über eine Dauer von 90 Minuten infundiert, wobei nach 60 Minuten zusätzlich 2 mg Ibutilide pro Kilogramm Körpergewicht in einem Zeitintervall von 30 min verabreicht wurde.
(§5) Analog wurden einer zweiten Ziege nach 60 Minuten Verabreichung verschiedener Mengen der Verbindung des Beispiels 1 (jeweils 0.0 (Kontrolle), 0.1, 0.3, 1, 3 und 10 mg pro kg Körpergewicht und pro Stunde jeweils im Abstand von Tagen) zusätzlich 10 µg Dofetilide pro kg Körpergewicht in einem Zeitintervall von 30 Minuten anstelle von Ibutilide verabreicht.
In Fig.1 und Fig.2 sind die Messungen der Zykluslänge des atrialen Flimmerns (AFCL) nach kombinierter Gabe von Ibutilide und der Verbindung des Beispiels 1 bzw. nach kombinierter Gabe von Dofetilide und der Verbindung des Beispiels 1 dargestellt. Die Messungen des AFCL und der Kardioversion erfolgten nebeneinander.
In den Zeichnungen wurden folgende Beschriftungen und Kennzeichnungen vorgenommen: • Fig.1: Messung der Zykluslänge des atrialen Flimmerns (AFCL) nach kombinierter Gabe von Ibutilide und der Verbindung des Beispiels 1 Y-Achse: AFCL in ms X-Achse: Zeit in Minuten Die Verbindung des Beispiels 1 wurde in folgenden Mengen infundiert: • 10 mg/kg/h • 3 mg/kg/h • 1 mg/kg/h • 0.3 mg/kg/h • 0.1 mg/kg/h • 0.0 mg/kg/h (Kontrolle) • Fig.2: Messung der Zykluslänge des atrialen Flimmerns (AFCL) nach kombinierter Gabe von Dofetilide und der Verbindung des Beispiels 1 Y-Achse: AFCL in ms X-Achse: Zeit in Minuten Die Verbindung des Beispiels 1 wurde in folgenden Mengen infundiert: • 10 mg/kg/h • 3 mg/kg/h • 1 mg/kg/h • 0.3 mg/kg/h • 0.1 mg/kg/h • 0.0 mg/kg/h (Kontrolle)

[4] = test system: persistierendem Vorhofflimmern (AF); test: Cardioversion in chronically fibrillating goats: time points of cardioversion (single goats); assay type: in vivo, Ziegen
Protocol: as §4, §5
Die Zeitpunkte der Kardioversion von persistierendem Vorhofflimmem (AF) durch die Gabe der Verbindung des Beispiels 1 mit Ibutilide bzw. der Verbindung des Beispiels 1 mit Dofetilide sind in den Tabellen 3 und 4 bei verschiedenen Dosierungen der Verbindung des Beispiels 1 (0.0, 0.1, 0.3, 1,3 und 10 mg pro kg Körpergewicht und pro Stunde) dargestellt. Tabelle 3: Auftreten der Kardioversion von persistierendem Vorhofflimmern (AF) nach jeweiliger Reinduktion des Vorhofflimmerns bei verschiedenen Dosierungen der Verbindung des Beispiels 1 und bei zusätzlicher Infusion von Ibutilide nach 60 Minuten (Zeitpunkte in Minuten gemessen ab Beginn der Infusion der Verbindung des Beispiels 1)

[5] = test system: Ziegen mit persistierendem Vorhofflimmern (AF); test: Efficiency of cardioversion in up to eight goats with persistent atrial fibrillation; assay type: in vivo
Protocol: In weiteren Versuchen wurde die Effizienz der Kardioversion bei verschiedenen Dosierungen der Verbindung des Beispiels 1 und bei zusätzlicher Infusion von Ibutilide (2 mg/kg) bzw. Dofetilide (10 µg/kg) an mehreren Ziegen getestet (Tabelle 5).
as §4, with “bis zu acht” for “zwei”, “Vorhofflimmern” for “Vorhofflimmem von mehr als 45 Tagen”, “Kontrolle wurden bis zu acht Ziegen” for “Kontrolle, wurde einer Ziege”, “1” for “1 der Reihe nach”
as §5, with “an bis zu acht Ziegen” for “einer zweiten Ziege”, “1,3” for “1, 3”
Die Effizienz der Kardioversion von persistierendem Vorhofflimmern (AF) durch die Gabe der Verbindung des Beispiels 1 mit ibutilide bzw. der Verbindung des Beispiels 1 mit Dofetilide sind in der Tabelle 5 bei verschiedenen Dosierungen der Verbindung des Beispiels 1 (0.0, 0.1, 0.3, 1, 3 und 10 mg pro kg Körpergewicht und pro Stunde) dargestellt. Angegeben sind die Anzahl der Ziegen, bei denen Kardioversion auftrat, im Vergleich zu der Anzahl der Ziegen, mit denen der Versuch durchgeführt wurde, und daraus errechnet die Effizienz der Kardioversion in Prozent. Jede Terminierung des persistenten Vorhofflimmerns während einer jeweiligen Infusionsperiode wurde als eine erfolgreiche Kardioversion angesehen. […] Tabelle 5: Effizienz der Kardioversion in Prozent bei Ziegen mit persistierendem Vorhofflimmern (AF) bei verschiedenen Dosierungen der Verbindung des Beispiels 1 und bei zusätzlicher Infusion von Ibutilide bzw. Dofetilide. In Klammern angegeben ist jeweils das Verhältnis Ziegen, bei denen Kardioversion auftrat, zu Ziegen, die bei dem jeweiligen Versuch eingesetzt wurden.

[6] = 5 goats, i.v. infusion: Dofetilide 0.12 mg/kg over 60 min
[7] = 7 goats, i.v. infusion: Ibutilide 0.12 mg/kg over 60 min
[8] = n=5, versus control (94 ms and 93 ms), Dofetilide study
[9] = n=7, versus control (93 ms and 97 ms), Ibutilide study
[10] = n=5, versus control before dosing (151 ms and 158 ms), Dofetilide study
[11] = n=7, versus control before dosing (159 ms and 162 ms), Ibutilide study
[12] = Fig.1 goat, Ibutilide 2 mg/kg per 30 min given after 60 min (alone: from 94 ms baseline), Beispiel 1 3 mg/kg/h
[13] = Beispiel 1 dose 0,1, alone or + Ibutilide 2mg/kg or + Dofetilide 10µg/kg
[14] = Beispiel 1 dose 0,3, alone or + Ibutilide 2mg/kg or + Dofetilide 10µg/kg
[15] = Beispiel 1 dose 1, alone or + Ibutilide 2mg/kg or + Dofetilide 10µg/kg
[16] = Beispiel 1 dose 10, alone or + Ibutilide 2mg/kg or + Dofetilide 10µg/kg
[17] = Beispiel 1 dose 0, Ibutilide 2mg/kg or Dofetilide 10µg/kg alone

Structure (SMILES)	atriale effektive Refraktärzeit (AERP) [1, 6] [ms]	atriale effektive Refraktärzeit (AERP) [1, 7] [ms]	Verlängerung des AERP [1, 8] [ms]	Verlängerung des AERP [1, 9] [ms]	atriale effektive Refraktärzeit (AERP) [2, 6] [ms]	atriale effektive Refraktärzeit (AERP) [2, 7] [ms]	Verlängerung der AERP [2, 10] [ms]	Verlängerung der AERP [2, 11] [ms]	AFCL [3, 12] [ms]	Effizienz der Cardioversion [5, 17] [%]	Verhältnis Ziegen, bei denen Kardioversion auftrat, zu Ziegen, die eingesetzt wurden [5, 17]	further results
COc1ccc(CC(=O)NCc2ccccc2-c2ccccc2C(=O)NCCc2cccnc2)cc1 [Beispiel 1, 2'-{[2-(4-Methoxy-phenyl)-acetylamino]-methyl}-biphenyl-2-carbonsäure-(2-pyridin-3-yl-ethyl)-amid]	164 ± 19	160 ± 16	71	63	209 ± 29	206 ± 26	51	44	147	–	–	AFCL ([3]; Fig.2 goat, Beispiel 1 alone at 0.1, 0.3, 1, 3 or 10 mg/kg/h): dosisabhängigen Zunahme der AFCL; Zeitpunkte der Kardioversion ([4]; Beispiel 1 10mg/kg/h, time points before the start of Ibutilide at 60 min (monotherapy), one goat, listed as Verbindung des Beispiels 1, 10 mg/kg): 42.00 Minuten and 50.00 Minuten; Kardioversion ([4]; Beispiel 1 alone at 0.1, 0.3, 1, 3 or 10 mg/kg/h, goat of Tabelle 4): nicht zur Kardioversion; Kardioversion ([4]; monotherapy, only at 10 mg/kg/h, goat of Tabelle 3): möglich, eine Kardioversion herbeizuführen; Effizienz der Cardioversion [5, 13]: 17%; Verhältnis Ziegen, bei denen Kardioversion auftrat, zu Ziegen, die eingesetzt wurden [5, 13]: (1/6); Effizienz der Cardioversion [5, 14]: 17%; Verhältnis Ziegen, bei denen Kardioversion auftrat, zu Ziegen, die eingesetzt wurden [5, 14]: (1/6); Effizienz der Cardioversion [5, 15]: 13%; Verhältnis Ziegen, bei denen Kardioversion auftrat, zu Ziegen, die eingesetzt wurden [5, 15]: (1/8); Effizienz der Cardioversion ([5]; Beispiel 1 dose 3, alone or + Ibutilide 2mg/kg or + Dofetilide 10µg/kg): 38%; Verhältnis Ziegen, bei denen Kardioversion auftrat, zu Ziegen, die eingesetzt wurden ([5]; Beispiel 1 dose 3, alone or + Ibutilide 2mg/kg or + Dofetilide 10µg/kg, listed as Verbindung des Beispiels 1): 3 von 8 and (3/8); Effizienz der Cardioversion [5, 16]: 63%; Verhältnis Ziegen, bei denen Kardioversion auftrat, zu Ziegen, die eingesetzt wurden [5, 16]: (5/8)
CN(CCOc1ccc(NS(C)(=O)=O)cc1)CCc1ccc(NS(C)(=O)=O)cc1 [Dofetilide, reference compound]	101 ± 19	–	7	–	172 ± 11	–	21	–	–	25	(1/4)	Anstieg der AFCL ([3]; Fig.2 goat, 10 µg/kg Dofetilide over 30 min without Beispiel 1): 14 ms; AFCL ([3]; Fig.2 goat, 10 µg/kg Dofetilide over 30 min without Beispiel 1, from 92 ms baseline): 106 ms; Kardioversion ([4]; 10 µg/kg Dofetilide over 30 min without Beispiel 1, goat of Tabelle 4): eine Kardioversion nicht eintritt
CCCCCCCN(CC)CCCC(O)c1ccc(NS(C)(=O)=O)cc1 (stereo not drawn) [Ibutilide, reference compound]	–	98 ± 20	–	5	–	185 ± 23	–	26	101	29	(2/7)	–
